Results from patent US20030032602A1, “Methods and compositions for collagen homeostasis” (priority 2001, published 2003).

System: collagenase from Clostridium histolyticum (EC 3.4.24.3)
Test: Inhibition of collagenase with fluorophor labeled Gelatin-FL, Collagen I-FL and Collagen IV-FL as substrate
Type: biochemical
Details: substrates collagen I, collagen IV and denatured collagen (gelatin), fluorescence-labeled; incubation 60 min at 37° C.; FIGS. 1A-1C
Procedure: The following examples have been provided to illustrate various aspects of the inventive subject matter. More particularly, all examples employed commercially available collagenase from Clostridium histolyticum (EC 3.4.24.3; Fluka Chemie AG, Switzerland) and commercially available collagen-I and collagen-IV (Molecular Probes, OR, USA).
Inhibition of collagenase from Clostridium histolyticum was determined using fluorophor labeled Gelatin-FL, Collagen I-FL and Collagen IV-FL as substrate. Negative control was Mg ascorbyl-2-phosphate (MAP), and exemplary boron-containing compounds were AB(F-D) and AB (V-E), which represented two different batches of potassium ascorbato-borates. The assay was performed under standard conditions with incubation and of substrate for 60 min at 37° C. and fluorescence was measured in a standard fluorometer. The results of the inhibition experiments are depicted in FIGS. 1A-1C. With respect to the inhibitors, the first column represents the negative control MAP, while the second and third columns represent exemplary boron-containing compounds AB(F-D) (potassium ascorbato-borate) and AB(V-E) (potassium ascorbato-borate). […] Moreover, additional experiments (data not shown) confirmed the inhibitory character of numerous other boron-containing compounds, and especially boron-containing compounds in which borate is complexed by one or more ligands.

In the case of potassium ascorbato-borate [AB(F-D)], the inhibition of collagenase is reported as “specific inhibitory compounds for collagenase”.
